Results published in PubChem BioAssay AID330 (DTP/NCI, 2004).
Where “and” joins values, the source holds several entries; their conditions need not be identical. Equal entries are not always repeated. Inconclusive results and toxic doses are left out. How the source made its calls: active means survival T/C of 150% or more; inactive means T/C below 125% in these data.

System: P388 leukemia ip, CD2F1 mice, survival T/C
Experiment: NCI In Vivo Anticancer Drug Screen. Data for tumor model P388 Leukemia (intraperitoneal) in CD2F1 (CDF1) mice
Conditions: endpoint: median survival time, higher = longer survival
Outline: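 Mice carrying the transplanted tumor received test compound or vehicle. Survival was recorded in each group, and the value is the treated-group measurement divided by that of the vehicle-treated control group.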

[1] = dose: 25.0 mg/kg/injection, schedule: Q04DX003 (ip), vehicle: saline with Tween-80
[2] = dose: 50.0 mg/kg/injection, schedule: Q04DX003 (ip), vehicle: saline with Tween-80
[3] = dose: 100.0 mg/kg/injection, schedule: Q04DX003 (ip), vehicle: saline with Tween-80
[4] = dose: 60.0 mg/kg/injection, schedule: Q01DX005 (ip), vehicle: saline with Tween-80
[5] = dose: 120.0 mg/kg/injection, schedule: Q01DX005 (ip), vehicle: saline with Tween-80
[6] = dose: 240.0 mg/kg/injection, schedule: Q01DX005 (ip), vehicle: saline with Tween-80

Measured: T/C

C/C=C(/C)C(=O)OC1C[C@@]2(C)OC2C(OC(C)=O)[C@@]2(C)CC[C@@](O)(C(C)C)C12 (some centres undefined)
inactive: dose: 35.0 mg/kg/injection, schedule: Q01DX005 (ip), vehicle: saline with Tween-80 101 % of control | dose: 70.0 mg/kg/injection, schedule: Q01DX005 (ip), vehicle: saline with Tween-80 96 % of control | dose: 140.0 mg/kg/injection, schedule: Q01DX005 (ip), vehicle: saline with Tween-80 90 % of control

COc1c2occc2c(NC(=O)C(Cl)(Cl)Cl)c2ccc(=O)oc12
inactive: dose: 5.0 mg/kg/injection, schedule: Q04DX002 (ip), vehicle: saline with Tween-80 102 % of control | dose: 10.0 mg/kg/injection, schedule: Q04DX002 (ip), vehicle: saline with Tween-80 101 % of control | dose: 20.0 mg/kg/injection, schedule: Q04DX002 (ip), vehicle: saline with Tween-80 102 % of control

Cc1cc(C)[n+]2n1C(=O)C(c1ccc(C3C(=O)n4c(C)cc(C)[n+]4C3=O)cc1)C2=O (centres undefined)
inactive: dose: 50.0 mg/kg/injection, schedule: Q01DX005 (ip), vehicle: Klucel + Tween-80 99 % of control | dose: 100.0 mg/kg/injection, schedule: Q01DX005 (ip), vehicle: Klucel + Tween-80 97 % of control | dose: 200.0 mg/kg/injection, schedule: Q01DX005 (ip), vehicle: Klucel + Tween-80 100 % of control

ClCCN(CCCl)c1ccc(/C=N/Nc2ccnc3ccccc23)cc1
inactive: dose: 0.39 mg/kg/injection, schedule: Q01DX009 (ip), vehicle: DMSO 92 % of control | dose: 0.78 mg/kg/injection, schedule: Q01DX009 (ip), vehicle: DMSO 87 % of control | dose: 1.56 mg/kg/injection, schedule: Q01DX009 (ip), vehicle: DMSO 90 % of control

CC(=O)Nc1ccc(S(=O)(=O)Nc2cccc3[nH]c(=O)oc23)cc1
inactive: dose: 50.0 mg/kg/injection, schedule: Q04DX002 (ip), vehicle: Klucel (hydroxypropylcellulose) (HPC) 98 % of control | dose: 100.0 mg/kg/injection, schedule: Q04DX002 (ip), vehicle: Klucel (hydroxypropylcellulose) (HPC) 95 % of control | dose: 200.0 mg/kg/injection, schedule: Q04DX002 (ip), vehicle: Klucel (hydroxypropylcellulose) (HPC) 92 % of control

C=CCCCCCCCCC(=O)N(CCOC)CCOC
inactive: [1] 100 % of control | [2] 100 % of control | [3] 100 % of control

O=C1NC(=O)C2(N1)C(=O)c1cccc3cccc2c13 (centres undefined)
inactive: dose: 50.0 mg/kg/injection, schedule: Q01DX009 (ip), vehicle: distilled water + alcohol 100 % of control | dose: 100.0 mg/kg/injection, schedule: Q01DX009 (ip), vehicle: distilled water + alcohol 102 % of control | dose: 200.0 mg/kg/injection, schedule: Q01DX009 (ip), vehicle: distilled water + alcohol 95 % of control

CCCCCCCCCCCCCCCC(CCCCCC)CCCCCC
inactive: dose: 50.0 mg/kg/injection, schedule: Q01DX001 (ip), vehicle: saline sonified 113 % of control | dose: 100.0 mg/kg/injection, schedule: Q01DX001 (ip), vehicle: saline sonified 100 % of control | dose: 200.0 mg/kg/injection, schedule: Q01DX001 (ip), vehicle: saline sonified 109 % of control

CNCCCCCc1cc(-c2ccc([N+](=O)[O-])cc2)n[nH]1
inactive: [1] 103 % of control | [2] 103 % of control | [3] 100 % of control and 94 % of control

CCOC(=O)COc1ccc(NC(C)=O)cc1
inactive: [4] 103 % of control | [5] 103 % of control | [6] 95 % of control

Nc1ncc(S(=O)(=O)c2ccc([N+](=O)[O-])cc2)c(N)n1
inactive: dose: 75.0 mg/kg/injection, schedule: Q01DX009 (ip), vehicle: suspension in saline 96 % of control | dose: 150.0 mg/kg/injection, schedule: Q01DX009 (ip), vehicle: suspension in saline 98 % of control | dose: 300.0 mg/kg/injection, schedule: Q01DX009 (ip), vehicle: suspension in saline 92 % of control

N=C1C=C(N)CS1
inactive: dose: 50.0 mg/kg/injection, schedule: Q01DX009 (ip), vehicle: saline 87 % of control | dose: 100.0 mg/kg/injection, schedule: Q01DX009 (ip), vehicle: saline 86 % of control | dose: 200.0 mg/kg/injection, schedule: Q01DX009 (ip), vehicle: saline 88 % of control

C=C1CN(CCc2ccccc2)C(=S)S1
inactive: [4] 101 % of control | [5] 102 % of control | [6] 102 % of control
